# Experimental data: patent US10131652B2, “Pyrimidinyloxy benzene derivatives as herbicides” (E. I. DU PONT DE NEMOURS AND COMPANY, priority 2014, dated 2018)
# What was measured:
# Assay in all cases: Test D pre-/postemergence plant response
# Type in all cases: in vivo
# [1] = tested on: morningglory (Ipomoea coccinea); details: Postemergence
# Summary of the method: (§1)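 0 = no effect, 100 = complete control: plants were scored this way by visual comparison with controls 13 to 15 days post-treatment. Application was preemergence to sown loam/sand pots or postemergence to 2–18 cm seedlings in peat-based mix.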
# [2] = tested on: giant foxtail (Setaria faberii); details: Postemergence; for Foxtail, Giant plant response rating: scale 0 to 100 (0 no effect, 100 complete control); for Plant response rating, Foxtail, Giant: scale 0 to 100, 0 no effect, 100 complete control
# Summary of the method: as §1
# [3] = tested on: galium (catchweed bedstraw, Galium aparine); details: Postemergence; for Galium plant response rating: 31 g ai/ha, scale 0 to 100 (0 no effect, 100 complete control); for Plant response rating, Galium: scale 0 to 100, 0 no effect, 100 complete control
# Summary of the method: as §1
# [4] = tested on: barnyardgrass (Echinochloa crus-galli); details: Postemergence; for Barnyardgrass plant response rating: scale 0 to 100 (0 no effect, 100 complete control); for Plant response rating, Barnyardgrass: scale 0 to 100, 0 no effect, 100 complete control
# Summary of the method: as §1
# [5] = tested on: waterhemp (common waterhemp, Amaranthus rudis); details: Postemergence
# Summary of the method: as §1
# [6] = tested on: Italian ryegrass (Lolium multiflorum); details: Postemergence
# Summary of the method: as §1
# [7] = tested on: johnsongrass (Sorghum halepense); details: Postemergence; for Johnsongrass plant response rating: 31 g ai/ha, scale 0 to 100 (0 no effect, 100 complete control); for Plant response rating, Johnsongrass: scale 0 to 100, 0 no effect, 100 complete control
# Summary of the method: as §1
# [8] = tested on: pigweed (Amaranthus retroflexus); details: Postemergence
# Summary of the method: as §1
# [9] = tested on: oilseed rape (Brassica napus); details: Postemergence
# Summary of the method: as §1
# [10] = tested on: ragweed (common ragweed, Ambrosia elatior); details: Postemergence
# Summary of the method: as §1
# soybean (Glycine max) = details: Postemergence
# Summary of the method: as §1
# [11] = tested on: large (Lg) crabgrass (Digitaria sanguinalis); details: Postemergence; for Crabgrass, Large plant response rating: scale 0 to 100 (0 no effect, 100 complete control); for Plant response rating, Crabgrass, Large: scale 0 to 100, 0 no effect, 100 complete control
# Summary of the method: as §1
# [12] = tested on: winter wheat (Triticum aestivum); details: Postemergence
# Summary of the method: as §1
# [13] = tested on: velvetleaf (Abutilon theophrasti); details: Postemergence
# Summary of the method: as §1
# corn (Zea mays) = details: Postemergence; for Corn plant response rating: scale 0 to 100 (0 no effect, 100 complete control); for Plant response rating, Corn: scale 0 to 100, 0 no effect, 100 complete control
# Summary of the method: as §1
# [14] = tested on: yellow nutsedge (Cyperus esculentus); details: Postemergence
# Summary of the method: as §1
# [15] = tested on: blackgrass (Alopecurus myosuroides); details: Postemergence; for Blackgrass plant response rating: scale 0 to 100 (0 no effect, 100 complete control); for Plant response rating, Blackgrass: scale 0 to 100, 0 no effect, 100 complete control
# Summary of the method: as §1
# [16] = tested on: lambsquarters (Chenopodium album); details: Postemergence
# Summary of the method: as §1
# [17] = 31 g ai/ha, scale 0 to 100 (0 no effect, 100 complete control)
# [18] = 62 g ai/ha, scale 0 to 100, 0 no effect, 100 complete control
# [19] = 125 g ai/ha, scale 0 to 100, 0 no effect, 100 complete control
smiles,measurement,setting,value
Fc1cccc(Oc2ncc(Cl)cn2)c1-c1cc(C(F)(F)F)no1 [Compound 228],"Plant response rating (scale 0 to 100), Morningglory",[1]; 16 g ai/ha,65
same,Morningglory plant response rating,[1]; [17],65
same,Morningglory plant response rating,[1]; [18],80
same,"Plant response rating, Morningglory",[1]; [19],75
same,"Plant response rating (scale 0 to 100), Foxtail, Giant",[2]; 16 g ai/ha,10
same,"Foxtail, Giant plant response rating",[2]; 31 g ai/ha,10
same,"Plant response rating, Foxtail, Giant",[2]; 62 g ai/ha,20
same,"Plant response rating, Foxtail, Giant",[2]; 125 g ai/ha,40
same,"Plant response rating (scale 0 to 100), Galium",[3]; 16 g ai/ha,85
same,Galium plant response rating,[3],98
same,"Plant response rating, Galium",[3]; 62 g ai/ha,98
same,"Plant response rating, Galium",[3]; 125 g ai/ha,100
same,"Plant response rating (scale 0 to 100), Barnyardgrass",[4]; 16 g ai/ha,15
same,Barnyardgrass plant response rating,[4]; 31 g ai/ha,20
same,"Plant response rating, Barnyardgrass",[4]; 62 g ai/ha,20
same,"Plant response rating, Barnyardgrass",[4]; 125 g ai/ha,35
same,"Plant response rating (scale 0 to 100), Waterhemp",[5]; 16 g ai/ha,90
same,Waterhemp plant response rating,[5]; [17],95
same,Waterhemp plant response rating,[5]; [18],95
same,"Plant response rating, Waterhemp",[5]; [19],100
same,"Plant response rating (scale 0 to 100), Ryegrass, Italian",[6]; 16 g ai/ha,0
same,"Ryegrass, Italian plant response rating",[6]; [17],5
same,"Ryegrass, Italian plant response rating",[6]; [18],15
same,"Plant response rating, Ryegrass, Italian",[6]; [19],25
same,"Plant response rating (scale 0 to 100), Johnsongrass",[7]; 16 g ai/ha,10
same,Johnsongrass plant response rating,[7],10
same,"Plant response rating, Johnsongrass",[7]; 62 g ai/ha,25
same,"Plant response rating, Johnsongrass",[7]; 125 g ai/ha,60
same,"Plant response rating (scale 0 to 100), Pigweed",[8]; 16 g ai/ha,85
same,Pigweed plant response rating,[8]; [17],95
same,Pigweed plant response rating,[8]; [18],95
same,"Plant response rating, Pigweed",[8]; [19],98
same,"Plant response rating (scale 0 to 100), Oilseed Rape",[9]; 16 g ai/ha,65
same,Oilseed Rape plant response rating,[9]; [17],85
same,Oilseed Rape plant response rating,[9]; [18],80
same,"Plant response rating, Oilseed Rape",[9]; [19],98
same,"Plant response rating (scale 0 to 100), Ragweed",[10]; 16 g ai/ha,20
same,Ragweed plant response rating,[10]; [17],35
same,Ragweed plant response rating,[10]; [18],60
same,"Plant response rating, Ragweed",[10]; [19],60
same,"Plant response rating (scale 0 to 100), Soybean",soybean (Glycine max); 16 g ai/ha,60
same,Soybean plant response rating,soybean (Glycine max); [17],55
same,Soybean plant response rating,soybean (Glycine max); [18],80
same,"Plant response rating, Soybean",soybean (Glycine max); [19],80
same,"Plant response rating (scale 0 to 100), Crabgrass, Large",[11]; 16 g ai/ha,15
same,"Crabgrass, Large plant response rating",[11]; 31 g ai/ha,20
same,"Plant response rating, Crabgrass, Large",[11]; 62 g ai/ha,35
same,"Plant response rating, Crabgrass, Large",[11]; 125 g ai/ha,45
same,"Plant response rating (scale 0 to 100), Wheat",[12]; 16 g ai/ha,0
same,Wheat plant response rating,[12]; [17],5
same,Wheat plant response rating,[12]; [18],10
same,"Plant response rating, Wheat",[12]; [19],10
same,"Plant response rating (scale 0 to 100), Velvetleaf",[13]; 16 g ai/ha,35
same,Velvetleaf plant response rating,[13]; [17],40
same,Velvetleaf plant response rating,[13]; [18],65
same,"Plant response rating, Velvetleaf",[13]; [19],80
same,"Plant response rating (scale 0 to 100), Corn",corn (Zea mays); 16 g ai/ha,5
same,Corn plant response rating,corn (Zea mays); 31 g ai/ha,10
same,"Plant response rating, Corn",corn (Zea mays); 62 g ai/ha,10
same,"Plant response rating, Corn",corn (Zea mays); 125 g ai/ha,10
same,"Plant response rating (scale 0 to 100), Nutsedge, Yellow",[14]; 16 g ai/ha,5
same,"Nutsedge, Yellow plant response rating",[14]; [17],5
same,"Nutsedge, Yellow plant response rating",[14]; [18],5
same,"Plant response rating, Nutsedge, Yellow",[14]; [19],10
same,"Plant response rating (scale 0 to 100), Blackgrass",[15]; 16 g ai/ha,15
same,Blackgrass plant response rating,[15]; 31 g ai/ha,15
same,"Plant response rating, Blackgrass",[15]; 62 g ai/ha,25
same,"Plant response rating, Blackgrass",[15]; 125 g ai/ha,35
same,"Plant response rating (scale 0 to 100), Lambsquarters",[16]; 16 g ai/ha,85
same,Lambsquarters plant response rating,[16]; [17],85
same,Lambsquarters plant response rating,[16]; [18],90
same,"Plant response rating, Lambsquarters",[16]; [19],95
FC(F)c1cc(-c2c(Cl)cccc2Oc2ncc(Br)cn2)on1 [Compound 121],Morningglory plant response rating,[1]; [17],75
same,"Plant response rating, Morningglory",[1]; [18],90
same,"Plant response rating, Morningglory",[1]; [19],98
same,"Foxtail, Giant plant response rating",[2]; 16 g ai/ha,10
same,"Foxtail, Giant plant response rating",[2]; 31 g ai/ha,10
same,"Plant response rating, Foxtail, Giant",[2]; 62 g ai/ha,15
same,"Plant response rating, Foxtail, Giant",[2]; 125 g ai/ha,40
same,Galium plant response rating,[3],90
same,"Plant response rating, Galium",[3]; 62 g ai/ha,100
same,"Plant response rating, Galium",[3]; 125 g ai/ha,95
same,Barnyardgrass plant response rating,[4]; 16 g ai/ha,20
same,Barnyardgrass plant response rating,[4]; 31 g ai/ha,25
same,"Plant response rating, Barnyardgrass",[4]; 62 g ai/ha,25
same,"Plant response rating, Barnyardgrass",[4]; 125 g ai/ha,45
same,Waterhemp plant response rating,[5]; [17],95
same,"Plant response rating, Waterhemp",[5]; [18],100
same,"Plant response rating, Waterhemp",[5]; [19],100
same,"Ryegrass, Italian plant response rating",[6]; [17],10
same,"Plant response rating, Ryegrass, Italian",[6]; [18],40
same,"Plant response rating, Ryegrass, Italian",[6]; [19],55
same,Johnsongrass plant response rating,[7],35
same,"Plant response rating, Johnsongrass",[7]; 62 g ai/ha,60
same,"Plant response rating, Johnsongrass",[7]; 125 g ai/ha,60
same,Pigweed plant response rating,[8]; [17],98
same,"Plant response rating, Pigweed",[8]; [18],100
same,"Plant response rating, Pigweed",[8]; [19],100
same,Oilseed Rape plant response rating,[9]; [17],80
same,"Plant response rating, Oilseed Rape",[9]; [18],95
same,"Plant response rating, Oilseed Rape",[9]; [19],95
same,Ragweed plant response rating,[10]; [17],65
same,"Plant response rating, Ragweed",[10]; [18],75
same,"Plant response rating, Ragweed",[10]; [19],98
same,Soybean plant response rating,soybean (Glycine max); [17],60
same,"Plant response rating, Soybean",soybean (Glycine max); [18],90
same,"Plant response rating, Soybean",soybean (Glycine max); [19],95
same,"Crabgrass, Large plant response rating",[11]; 16 g ai/ha,15
same,"Crabgrass, Large plant response rating",[11]; 31 g ai/ha,10
same,"Plant response rating, Crabgrass, Large",[11]; 62 g ai/ha,40
same,"Plant response rating, Crabgrass, Large",[11]; 125 g ai/ha,55
same,Wheat plant response rating,[12]; [17],0
same,"Plant response rating, Wheat",[12]; [18],0
same,"Plant response rating, Wheat",[12]; [19],0
same,Velvetleaf plant response rating,[13]; [17],80
same,"Plant response rating, Velvetleaf",[13]; [18],80
same,"Plant response rating, Velvetleaf",[13]; [19],85
same,Corn plant response rating,corn (Zea mays); 16 g ai/ha,10
same,Corn plant response rating,corn (Zea mays); 31 g ai/ha,20
same,"Plant response rating, Corn",corn (Zea mays); 62 g ai/ha,20
same,"Plant response rating, Corn",corn (Zea mays); 125 g ai/ha,25
same,"Nutsedge, Yellow plant response rating",[14]; [17],10
same,"Plant response rating, Nutsedge, Yellow",[14]; [18],5
same,"Plant response rating, Nutsedge, Yellow",[14]; [19],20
same,Blackgrass plant response rating,[15]; 16 g ai/ha,5
same,Blackgrass plant response rating,[15]; 31 g ai/ha,25
same,"Plant response rating, Blackgrass",[15]; 62 g ai/ha,30
same,"Plant response rating, Blackgrass",[15]; 125 g ai/ha,50
same,Lambsquarters plant response rating,[16]; [17],100
same,"Plant response rating, Lambsquarters",[16]; [18],100
same,"Plant response rating, Lambsquarters",[16]; [19],100
